Read-outs that look alike come from different tables or passages of the source. No end group written: not given here.
Assays:
Experiment in all cases: biochemical
Format in all cases: binding
HLA-DR DRB1*0701 (DR7) = HLA-DR DRB1*0701 (DR7) (Homo sapiens, UniProt P01903+P01911, A100R/A102G/A103Q/D57E/D86V/E43K/F76Y/K127E/L162R/M171V/P40G/Q125H/Q99D/R33Q/R42Y/R54Q/S133A/S66F/T210M/V115G/Y107V/Y59L/Y89S)
HLA-DR DRB1*0101 (DR1) = HLA-DR DRB1*0101 (DR1) (Homo sapiens, UniProt P01903+P01911, A100R/D57E/F55L/F60I/F76Y/I96L/L162R/M171V/P40L/Q125E/R42F/V115G/Y59C)
HLA-DR DRB1*0301 (DR3) = HLA-DR DRB1*0301 (DR3) (Homo sapiens, UniProt P01903+P01911, A100K/A102G/A103R/A169T/F55Y/I96L/K41T/L162R/M171V/P40S/Q125H/Q178H/Q39Y/R42S/S66N/T106N/T262R/W38E/Y61H)
Chain of HLA-DR DRB1*0301 (DR3) (P01903 26-254 limits assumed, other chains not shown): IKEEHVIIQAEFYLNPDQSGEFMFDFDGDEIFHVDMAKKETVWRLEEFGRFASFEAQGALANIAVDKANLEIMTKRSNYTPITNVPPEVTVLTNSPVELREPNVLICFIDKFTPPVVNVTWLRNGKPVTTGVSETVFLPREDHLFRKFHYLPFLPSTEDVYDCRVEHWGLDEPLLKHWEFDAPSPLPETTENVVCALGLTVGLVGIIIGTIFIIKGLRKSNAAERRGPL

HLA-DR DRB1*0901 (DR9) = HLA-DR DRB1*0901 (DR9) (Homo sapiens, UniProt P01903+P01911, A100R/A103E/D57H/D86V/F55Y/F60I/F76Y/I96F/K127E/L162R/M171V/P40D/Q125H/Q99R/R33Q/R42F/S133A/S66N/T210M/V115G/W38K/Y107V/Y59G/Y89S)
HLA-DR DRB1*0405 (DR4) = HLA-DR DRB1*0405 (DR4) (Homo sapiens, UniProt P01903+P01911, A100R/A169T/D86S/F76Y/I96L/K127E/L162R/M171V/N62H/P40V/Q125Y/R42H/S133A/S149N/S66Y/V115G/V209L/W38E)
HLA-DR DRB1*0401 (DR4) = HLA-DR DRB1*0401 (DR4) (Homo sapiens, UniProt P01903+P01911, A100K/A169T/F76Y/I96L/K127E/L162R/M171V/N62H/P40V/Q125Y/R42H/S133A/S149N/S66Y/V115G/V209L/W38E)
HLA-DR DRB1*0802 (DR8) = HLA-DR DRB1*0802 (DR8) (Homo sapiens, UniProt P01903+P01911, A100R/A103L/A169T/F76Y/H45Y/I96F/K41T/L162R/M171V/P40S/Q125H/Q178H/Q39Y/Q99D/R218S/R42G/S66Y/V115G/W38E)
HLA-DR DRB5*0101 (DR51) = HLA-DR DRB5*0101 (DR51) (Homo sapiens, UniProt P01903+Q30154)
HLA-DR DRB1*1101 (DR11) = HLA-DR DRB1*1101 (DR11) (Homo sapiens, UniProt P01903+P01911, A100R/A169T/A87E/I96F/K41T/L162R/M171V/P40S/Q125H/Q178H/Q39Y/Q99D/R42S/S66Y/T262R/V115G/W38E)
Chain of HLA-DR DRB1*1101 (DR11) (P01903 26-254 limits assumed, other chains not shown): as above

HLA-DR DRB1*1302 (DR13) = HLA-DR DRB1*1302 (DR13) (Homo sapiens, UniProt P01903+P01911, A100E/A169T/K41T/L162R/M171V/P40S/Q125H/Q178H/Q39Y/Q99D/R42S/S66N/T262R/V115G/W38E/Y61H)
Chain of HLA-DR DRB1*1302 (DR13) (P01903 26-254 limits assumed, other chains not shown): as above

HLA-DR DRB1*1501 (DR15) = HLA-DR DRB1*1501 (DR15) (Homo sapiens, UniProt P01903+P01911)
HLA-DR DRB4*0101 (DR53) = HLA-DR DRB4*0101 (DR53) (Homo sapiens, UniProt P01903+P13762, G164S)

Compound	IC50 (HLA-DR DRB1*0701 (DR7)) [nM]	IC50 (HLA-DR DRB1*0101 (DR1)) [nM]	IC50 (HLA-DR DRB1*0301 (DR3)) [nM]	IC50 (HLA-DR DRB1*0901 (DR9)) [nM]	IC50 (HLA-DR DRB1*0405 (DR4)) [nM]	IC50 (HLA-DR DRB1*0401 (DR4)) [nM]	IC50 (HLA-DR DRB1*0802 (DR8)) [nM]	IC50 (HLA-DR DRB1*0701 (DR7); DRB1 *0701) [nM]	IC50 (HLA-DR DRB5*0101 (DR51); DRB5 *0101) [nM]	IC50 (HLA-DR DRB1*0101 (DR1); DRB1 *0101) [nM]	IC50 (HLA-DR DRB1*0901 (DR9); DRB1 *0901) [nM]	IC50 (HLA-DR DRB1*1101 (DR11); DRB1 *1101) [nM]	IC50 (HLA-DR DRB1*0405 (DR4); DRB1 *0405) [nM]	IC50 (HLA-DR DRB1*1302 (DR13); DRBI *1302) [nM]	IC50 (HLA-DR DRB1*1501 (DR15); DRBI *1501) [nM]	IC50 (HLA-DR DRB1*0401 (DR4); DRB1 *0401) [nM]	IC50 (HLA-DR DRB4*0101 (DR53); DRB4 *0101) [nM]	IC50 (HLA-DR DRB1*1101 (DR11)) [nM]	IC50 (HLA-DR DRB1*1302 (DR13)) [nM]	IC50 (HLA-DR DRB4*0101 (DR53)) [nM]	further results
CC[C@H](C)[C@H](NC(=O)[C@H](CCCCN)NC(=O)[C@H](CC(N)=O)NC(=O)[C@@H](NC(=O)[C@@H](NC(=O)[C@H](CC(C)C)NC(=O)[C@@H](NC(=O)[C@H](CO)NC(=O)[C@H](CC(C)C)NC(=O)[C@H](C)N)[C@@H](C)O)C(C)C)C(C)C)C(=O)N[C@@H](CCCNC(=N)N)C(=O)NCC(=O)N[C@H](C(=O)N[C@@H](Cc1ccccc1)C(=O)N[C@@H](CCCCN)C(=O)O)[C@@H](C)O	396	75	274	18000	3630	648	20														
CC[C@H](C)[C@H](NC(=O)[C@H](CCC(=O)O)NC(=O)[C@@H](NC(=O)[C@H](Cc1ccc(O)cc1)NC(=O)[C@H](CCC(=O)O)NC(=O)[C@@H](N)CCC(=O)O)C(C)C)C(=O)N[C@@H](CCCNC(=N)N)C(=O)N[C@@H](CCC(N)=O)C(=O)N[C@H](C(=O)NCC(=O)N[C@@H](CC(=O)O)C(=O)N[C@@H](Cc1ccccc1)C(=O)N[C@@H](Cc1c[nH]cn1)C(=O)O)C(C)C			74900				13900	11300	9750	> 1960	11200	4680	26	> 1900	2060	> 5370	2060				
CC[C@H](C)[C@H](NC(=O)[C@H](CCCCN)NC(=O)[C@H](CC(N)=O)NC(=O)[C@@H](NC(=O)[C@@H](NC(=O)[C@H](CC(C)C)NC(=O)[C@@H](NC(=O)[C@H](CO)NC(=O)[C@H](CC(C)C)NC(=O)[C@H](C)NC(=O)[C@H](CCC(=O)O)NC(=O)CN)[C@@H](C)O)C(C)C)C(C)C)C(=O)N[C@@H](CCCNC(=N)N)C(=O)NCC(=O)N[C@H](C(=O)O)[C@@H](C)O			29700	40800	30100		383		108									977	55	1510	
CC[C@H](C)[C@H](N)C(=O)N[C@@H](C)C(=O)NCC(=O)N[C@@H](CC(C)C)C(=O)N[C@@H](Cc1ccccc1)C(=O)N[C@@H](CC(C)C)C(=O)N[C@H](C(=O)N[C@H](C(=O)N[C@@H](CCC(=O)O)C(=O)N[C@@H](C)C(=O)N[C@H](C(=O)N[C@H](C(=O)N[C@@H](C)C(=O)N[C@@H](CC(=O)O)C(=O)N[C@@H](CCCCN)C(=O)O)C(C)C)C(C)C)[C@@H](C)O)[C@@H](C)O	230	6.8		409	67	13	3890											867	> 10300	> 26400	IC50 (HLA-DR DRB1*1501 (DR15)): > 50800 nM
CC(C)C[C@H](N)C(=O)N[C@@H](CCC(=O)O)C(=O)N1CCC[C@H]1C(=O)N[C@@H](Cc1c[nH]c2ccccc12)C(=O)N[C@@H](CC(N)=O)C(=O)N[C@@H](Cc1c[nH]cn1)C(=O)N1CCC[C@H]1C(=O)NCC(=O)N[C@@H](CO)C(=O)N[C@@H](CCC(N)=O)C(=O)N1CCC[C@H]1C(=O)N[C@@H](CCCCN)C(=O)N[C@H](C(=O)N[C@@H](C)C(=O)N[C@@H](CS)C(=O)N[C@H](C(=O)O)[C@@H](C)O)[C@@H](C)O	> 72300	> 33600	> 328000	34500	> 8230	> 33300	69200											> 15300	> 11000	92	IC50 (HLA-DR DRB5*0101 (DR51)): 2940 nM
CC[C@H](C)[C@H](NC(=O)CNC(=O)[C@H](CC(C)C)NC(=O)CNC(=O)[C@H](CCCCN)NC(=O)[C@@H](NC(=O)[C@@H](NC(=O)[C@H](Cc1ccccc1)NC(=O)[C@H](CS)NC(=O)[C@@H](NC(=O)[C@@H](N)CCC(N)=O)C(C)C)[C@@H](C)CC)[C@@H](C)O)C(=O)N[C@@H](CO)C(=O)N[C@@H](Cc1ccc(O)cc1)C(=O)NCC(=O)N[C@@H](CCCNC(=N)N)C(=O)O			167000				41	91	3950			31	295	92	3550		876				
ALSTLVLNRLKVGLQ							4	647	3.9	49	2170	9.1	2170	4.6	191	517	17				
ALWRVSAEEY			> 76600				4100	7950	> 35600	> 6340	698	243	> 35300	> 6400	> 15300	6540	> 7930				
AYVLLSEKKISSIQS							27	3850	4520	78	3340	51	9470	816	489	943	902				
